Assay results as given in article PMC11576293, “New series of 4,6-diaryl pyrimidines: facile synthesis and antiproliferative activity as dual EGFR/VEGFR-2 inhibitors” (Frontiers in Chemistry, 2024).

How the values were obtained:
SK-MEL-5 = assay: NCI-60 single-dose screen; assay type: cell-based; settings: Homo sapiens, single dose 10 µM, '-' = no inhibition, read-out: % Growth Inhibition
Summary of the method: (§1)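 Was run as a one-dose (10 μM) screen by the NCI Developmental Therapeutics Program, covering 60 tumour cell lines from nine cancer types including renal, melanoma and CNS.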

KM12 = assay: NCI-60 single-dose screen; assay type: cell-based; settings: Homo sapiens, single dose 10 µM, '-' = no inhibition, read-out: % Growth Inhibition
Summary of the method: as §1

MOLT-4 = assay: NCI-60 single-dose screen; assay type: cell-based; settings: Homo sapiens, single dose 10 µM, '-' = no inhibition, read-out: % Growth Inhibition
Summary of the method: as §1

ACHN 1 = assay: NCI-60 single-dose screen; assay type: cell-based; settings: Homo sapiens, single dose 10 µM, '-' = no inhibition, read-out: % Growth Inhibition
Summary of the method: as §1

M14 = assay: NCI-60 single-dose screen; assay type: cell-based; settings: Homo sapiens, single dose 10 µM, '-' = no inhibition, read-out: % Growth Inhibition
Summary of the method: as §1

HCT-15 = assay: NCI-60 single-dose screen; assay type: cell-based; settings: Homo sapiens, single dose 10 µM, '-' = no inhibition, read-out: % Growth Inhibition
Summary of the method: as §1

SK-OV-3 = assay: NCI-60 single-dose screen; assay type: cell-based; settings: Homo sapiens, single dose 10 µM, '-' = no inhibition, read-out: % Growth Inhibition
Summary of the method: as §1

CCRF-CEM = assay: NCI-60 single-dose screen; assay type: cell-based; settings: Homo sapiens, single dose 10 µM, '-' = no inhibition, read-out: % Growth Inhibition
Summary of the method: as §1

HCC-2998 = assay: NCI-60 single-dose screen; assay type: cell-based; settings: Homo sapiens, single dose 10 µM, '-' = no inhibition, read-out: % Growth Inhibition
Summary of the method: as §1

NCI-H322M = assay: NCI-60 single-dose screen; assay type: cell-based; settings: Homo sapiens, single dose 10 µM, '-' = no inhibition, read-out: % Growth Inhibition
Summary of the method: as §1

HL-60(TB) = assay: NCI-60 single-dose screen; assay type: cell-based; settings: Homo sapiens, single dose 10 µM, '-' = no inhibition, read-out: % Growth Inhibition
SK-MEL-28 = assay: NCI-60 single-dose screen; assay type: cell-based; settings: Homo sapiens, single dose 10 µM, '-' = no inhibition, read-out: % Growth Inhibition
Summary of the method: as §1

HT29 = assay: NCI-60 single-dose screen; assay type: cell-based; settings: Homo sapiens, HT-29, single dose 10 µM, '-' = no inhibition, read-out: % Growth Inhibition
Summary of the method: as §1

NCI-H522 = assay: NCI-60 single-dose screen; assay type: cell-based; settings: Homo sapiens, single dose 10 µM, '-' = no inhibition, read-out: % Growth Inhibition
Summary of the method: as §1

CAKI-1 = assay: NCI-60 single-dose screen; assay type: cell-based; settings: Homo sapiens, single dose 10 µM, '-' = no inhibition, read-out: % Growth Inhibition
Summary of the method: as §1

K-562 = assay: NCI-60 single-dose screen; assay type: cell-based; settings: Homo sapiens, K562, single dose 10 µM, '-' = no inhibition, read-out: % Growth Inhibition
Summary of the method: as §1

A498 = assay: NCI-60 single-dose screen; assay type: cell-based; settings: Homo sapiens, single dose 10 µM, '-' = no inhibition, read-out: % Growth Inhibition
Summary of the method: as §1

SF-268 = assay: NCI-60 single-dose screen; assay type: cell-based; settings: Homo sapiens, single dose 10 µM, '-' = no inhibition, read-out: % Growth Inhibition
Summary of the method: as §1

NCI-H460 = assay: NCI-60 single-dose screen; assay type: cell-based; settings: Homo sapiens, single dose 10 µM, '-' = no inhibition, read-out: % Growth Inhibition
Summary of the method: as §1

OVCAR-5 = assay: NCI-60 single-dose screen; assay type: cell-based; settings: Homo sapiens, single dose 10 µM, '-' = no inhibition, read-out: % Growth Inhibition
Summary of the method: as §1

DU-145 = assay: NCI-60 single-dose screen; assay type: cell-based; settings: Homo sapiens, single dose 10 µM, '-' = no inhibition, read-out: % Growth Inhibition
Summary of the method: as §1

OVCAR-4 = assay: NCI-60 single-dose screen; assay type: cell-based; settings: Homo sapiens, single dose 10 µM, '-' = no inhibition, read-out: % Growth Inhibition
Summary of the method: as §1

TK-10 = assay: NCI-60 single-dose screen; assay type: cell-based; settings: Homo sapiens, single dose 10 µM, '-' = no inhibition, read-out: % Growth Inhibition
Summary of the method: as §1

UACC-62 = assay: NCI-60 single-dose screen; assay type: cell-based; settings: Homo sapiens, single dose 10 µM, '-' = no inhibition, read-out: % Growth Inhibition
Summary of the method: as §1

SF-295 = assay: NCI-60 single-dose screen; assay type: cell-based; settings: Homo sapiens, single dose 10 µM, '-' = no inhibition, read-out: % Growth Inhibition
Summary of the method: as §1

SK-MEL-2 = assay: NCI-60 single-dose screen; assay type: cell-based; settings: Homo sapiens, single dose 10 µM, '-' = no inhibition, read-out: % Growth Inhibition
Summary of the method: as §1

HOP-62 = assay: NCI-60 single-dose screen; assay type: cell-based; settings: Homo sapiens, single dose 10 µM, '-' = no inhibition, read-out: % Growth Inhibition
Summary of the method: as §1

SW-620 = assay: NCI-60 single-dose screen; assay type: cell-based; settings: Homo sapiens, single dose 10 µM, '-' = no inhibition, read-out: % Growth Inhibition
Summary of the method: as §1

NCI-H23 = assay: NCI-60 single-dose screen; assay type: cell-based; settings: Homo sapiens, single dose 10 µM, '-' = no inhibition, read-out: % Growth Inhibition
Summary of the method: as §1

786-0 = assay: NCI-60 single-dose screen; assay type: cell-based; settings: Homo sapiens, single dose 10 µM, '-' = no inhibition, read-out: % Growth Inhibition
Summary of the method: as §1

MDA-MB-468 = assay: NCI-60 single-dose screen; assay type: cell-based; settings: Homo sapiens, single dose 10 µM, '-' = no inhibition, read-out: % Growth Inhibition
Summary of the method: as §1

U251 = assay: NCI-60 single-dose screen; assay type: cell-based; settings: Homo sapiens, U-251, single dose 10 µM, '-' = no inhibition, read-out: % Growth Inhibition
Summary of the method: as §1

T-47D = assay: NCI-60 single-dose screen; assay type: cell-based; settings: Homo sapiens, T47D, single dose 10 µM, '-' = no inhibition, read-out: % Growth Inhibition
Summary of the method: as §1

LOX IMVI = assay: NCI-60 single-dose screen; assay type: cell-based; settings: Homo sapiens, single dose 10 µM, '-' = no inhibition, read-out: % Growth Inhibition
Summary of the method: as §1

COc1ccc(-c2cc(-c3ccc(Cl)cc3)nc(SC)n2)cc1 [Compound 9, 4-(4-Chlorophenyl)-6-(4-methoxyphenyl)-2-(methylthio)pyrimidine]
inhibition at 10 µM (SK-MEL-5): 4.98%
inhibition at 10 µM (KM12): 5.71%
inhibition at 10 µM (MOLT-4): 11.7%
inhibition at 10 µM (ACHN 1): 4.08%
inhibition at 10 µM (M14): 3.51%
inhibition at 10 µM (HCT-15): 15%
inhibition at 10 µM (SK-OV-3): < 0%
inhibition at 10 µM (CCRF-CEM): 0.1%
inhibition at 10 µM (HCC-2998): < 0%
inhibition at 10 µM (NCI-H322M): 14.3%
inhibition at 10 µM (HL-60(TB)): 7.42%
inhibition at 10 µM (SK-MEL-28): < 0%
inhibition at 10 µM (HT29): 15.6%
inhibition at 10 µM (NCI-H522): 16%
inhibition at 10 µM (CAKI-1): 28.8%
inhibition at 10 µM (K-562): 18.6%
inhibition at 10 µM (A498): < 0%
inhibition at 10 µM (SF-268): 4.44%
inhibition at 10 µM (NCI-H460): 4.25%
inhibition at 10 µM (OVCAR-5): < 0%
inhibition at 10 µM (DU-145): 5.68%
inhibition at 10 µM (OVCAR-4): 4.46%
inhibition at 10 µM (TK-10): < 0%
inhibition at 10 µM (UACC-62): 26%
inhibition at 10 µM (SF-295): 7.84%
inhibition at 10 µM (SK-MEL-2): < 0%
inhibition at 10 µM (HOP-62): 9.16%
inhibition at 10 µM (SW-620): 6.31%
inhibition at 10 µM (NCI-H23): 9.87%
inhibition at 10 µM (786-0): 1.88%
inhibition at 10 µM (MDA-MB-468): 26.2%
inhibition at 10 µM (U251): 3.42%
inhibition at 10 µM (T-47D): 9.97%
inhibition at 10 µM (LOX IMVI): 12.2%
melting point: 220 to 221 °C

CCSc1nc(-c2ccc(OC)cc2)cc(-c2cccc(OC)c2)n1 [Compound 17, 2-(Ethylthio)-6-(3-methoxyphenyl)-4-(4-methoxyphenyl)pyrimidine]
inhibition at 10 µM (SK-MEL-5): 6.31%
inhibition at 10 µM (KM12): 2.23%
inhibition at 10 µM (MOLT-4): 4.56%
inhibition at 10 µM (ACHN 1): < 0%
inhibition at 10 µM (M14): < 0%
inhibition at 10 µM (HCT-15): 2.62%
inhibition at 10 µM (CCRF-CEM): 2.15%
inhibition at 10 µM (HCC-2998): < 0%
inhibition at 10 µM (NCI-H322M): < 0%
inhibition at 10 µM (HL-60(TB)): 18.6%
inhibition at 10 µM (SK-MEL-28): < 0%
inhibition at 10 µM (HT29): < 0%
inhibition at 10 µM (NCI-H522): 5.39%
inhibition at 10 µM (CAKI-1): 9.72%
inhibition at 10 µM (K-562): 9.37%
inhibition at 10 µM (A498): < 0%
inhibition at 10 µM (SF-268): < 0%
inhibition at 10 µM (NCI-H460): < 0%
inhibition at 10 µM (OVCAR-5): < 0%
inhibition at 10 µM (DU-145): < 0%
inhibition at 10 µM (OVCAR-4): 3.36%
inhibition at 10 µM (TK-10): < 0%
inhibition at 10 µM (UACC-62): < 0%
inhibition at 10 µM (SF-295): < 0%
inhibition at 10 µM (SK-MEL-2): 5.15%
inhibition at 10 µM (HOP-62): < 0%
inhibition at 10 µM (SW-620): 1.81%
inhibition at 10 µM (NCI-H23): < 0%
inhibition at 10 µM (786-0): < 0%
inhibition at 10 µM (MDA-MB-468): < 0%
inhibition at 10 µM (U251): < 0%
inhibition at 10 µM (T-47D): 10.2%
inhibition at 10 µM (LOX IMVI): 5.7%
melting point: 221 to 222 °C
